# Measurements: PubChem BioAssay (NCI)
#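 Tested at 5 concentrations; 48 h exposure; 96-well plates; endpoints linearly interpolated, else capped at highest concentration. TGI: total growth inhibition.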
# Tested on: K-562 leukemia
# Test: DTP human tumour cell line panel, 48 h
row,SMILES,TGI
1,CC(=O)N1C(Nc2nccs2)CCN1c1ccccc1 (centres undefined),> 10 µM
2,Cc1cc(NS(=O)(=O)c2ccc(N=[N+]([O-])c3ccc(S(=O)(=O)Nc4cc(C)on4)cc3)cc2)no1,> 100 µM
3,Cc1ccc(S(=O)(=O)N/N=C2/CCC3(O)CC2(C)CCC2[C@H]3CC2(C)C)cc1 (some centres undefined),90.7 µM
4,CCCCCCCCCCCCOCC1(COCCCCCCCCCCCC)COC(c2ccc(N)cc2)OC1,> 100 µM
5,CC(C)OP(=O)(OC(C)C)C(C)(C)O,> 100 µM
6,Cc1cn(C2CC(N=[N+]=[N-])C(COP(=O)(O)OCC3OC(n4cc(F)c(=O)[nH]c4=O)CC3O)O2)c(=O)[nH]c1=O (centres undefined),> 65.7 µM
7,NC(=O)[N+](=CC(=S)Nc1ccccc1Cl)C(N)=O,> 100 µM

# Tested on: NCI-H460 lung
# Test: DTP human tumour cell line panel, 48 h
row,SMILES,TGI
1,CCCCCCCCCCCCCCCCNC(=O)/C(=C\c1ccc(Cl)c(Cl)c1)NC(=O)c1ccccc1,> 100 µM
2,O=C(Nc1ccccc1)OCCN=C1c2ccccc2CCc2ccccc21,44.4 µM
3,COC(=O)/C=C/[C@@H]1[C@H](C)N1S(=O)(=O)c1ccc(C)cc1 (some centres undefined),> 100 µM
4,COc1cc([C@@H]2c3cc4c(cc3[C@@H](Nc3ccc(Cl)cc3C(=O)c3ccccc3)[C@H]3COC(=O)[C@H]23)OCO4)cc(OC)c1OC,> 100 µM
5,O=C1Oc2ccccc2C(=O)/C1=C/N1C(=O)CNC1=S,> 100 µM
6,Cc1nn(C(=O)c2ccncc2)c2c1C(c1ccccc1[N+](=O)[O-])SC(N)=N2 (centres undefined),> 10 µM
7,Cn1nnc2c3c(N(CCO)CCO)ccnc3ccc21,> 100 µM
8,Cc1ccc(S(=O)(=O)N2CCSCCSCCSCCN(S(=O)(=O)c3ccc(C)cc3)CC2)cc1,> 100 µM
9,CCCc1nc2c(n1CC)C(=O)c1ccccc1C2=O,> 100 µM
10,C1CCCN(NC2=NCCO2)CC1,> 100 µM
11,O=C1NCN(c2ccccc2)C12CCN(CC1COc3ccccc3O1)CC2 (centres undefined),> 100 µM
12,CCOc1ccc(NC(=O)C(=O)Nn2c(N)nnc2N)cc1,> 100 µM
13,O=C1OC([C@H](O)c2cccnc2)c2ccccc21 (some centres undefined),> 10 µM
14,CC(=O)/C(=C\I)c1ccccc1,24.7 µM
15,C=CCN1CCC(c2cc(C(=O)OCC)[nH]c2-c2cc(C)no2)C1=O (centres undefined),> 100 µM
16,CC(=O)N1C(Nc2nccs2)CCN1c1ccccc1 (centres undefined),> 10 µM
17,Cc1ccc(S(=O)(=O)N/N=C2/CCC3(O)CC2(C)CCC2[C@H]3CC2(C)C)cc1 (some centres undefined),64.3 µM
18,Cc1cn(C2CC(N=[N+]=[N-])C(COP(=O)(O)OCC3OC(n4cc(F)c(=O)[nH]c4=O)CC3O)O2)c(=O)[nH]c1=O (centres undefined),> 100 µM
19,NC(=O)[N+](=CC(=S)Nc1ccccc1Cl)C(N)=O,> 100 µM

# Tested on: M14 melanoma
# Test: DTP human tumour cell line panel, 48 h
row,SMILES,TGI
1,CCCCCCCCCCCCCCCCNC(=O)/C(=C\c1ccc(Cl)c(Cl)c1)NC(=O)c1ccccc1,> 100 µM
2,O=C(Nc1ccccc1)OCCN=C1c2ccccc2CCc2ccccc21,45.1 µM
3,COc1cc2cc(C(=O)N3CC(CCl)c4ccc([N+](C)(C)Cc5ccccc5[N+](=O)[O-])cc43)[nH]c2c(OC)c1OC (centres undefined),19 µM
4,CC(C)[C@H]1NC(=O)[C@H]2N=C(S[C@H]2C)[C@@H]2CCCN2C(=O)[C@H](Cc2ccccc2)NC(=O)[C@@H]2CSC(=N2)[C@@H](Cc2ccccc2)NC(=O)[C@@H]2CSC1=N2,> 50 µM
5,COC(=O)/C=C/[C@@H]1[C@H](C)N1S(=O)(=O)c1ccc(C)cc1 (some centres undefined),> 100 µM
6,COc1cc([C@@H]2c3cc4c(cc3[C@@H](Nc3ccc(Cl)cc3C(=O)c3ccccc3)[C@H]3COC(=O)[C@H]23)OCO4)cc(OC)c1OC,> 100 µM
7,O=C1Oc2ccccc2C(=O)/C1=C/N1C(=O)CNC1=S,> 100 µM
8,Cc1nn(C(=O)c2ccncc2)c2c1C(c1ccccc1[N+](=O)[O-])SC(N)=N2 (centres undefined),> 10 µM
9,Cn1nnc2c3c(N(CCO)CCO)ccnc3ccc21,> 100 µM
10,Cc1ccc(S(=O)(=O)N2CCSCCSCCSCCN(S(=O)(=O)c3ccc(C)cc3)CC2)cc1,> 100 µM
11,CCCc1nc2c(n1CC)C(=O)c1ccccc1C2=O,94 µM
12,C1CCCN(NC2=NCCO2)CC1,> 100 µM
13,O=C1NCN(c2ccccc2)C12CCN(CC1COc3ccccc3O1)CC2 (centres undefined),> 100 µM
14,CCOc1ccc(NC(=O)C(=O)Nn2c(N)nnc2N)cc1,> 100 µM
15,O=C1OC([C@H](O)c2cccnc2)c2ccccc21 (some centres undefined),> 10 µM
16,CC(C)(C)O/N=C/c1cc(NC(=S)c2ccsc2)ccc1Cl,31.4 µM
17,CC(=O)/C(=C\I)c1ccccc1,4.4 µM
18,C=CCN1CCC(c2cc(C(=O)OCC)[nH]c2-c2cc(C)no2)C1=O (centres undefined),> 100 µM
19,CC(=O)N1C(Nc2nccs2)CCN1c1ccccc1 (centres undefined),> 10 µM
20,Cc1cc(NS(=O)(=O)c2ccc(N=[N+]([O-])c3ccc(S(=O)(=O)Nc4cc(C)on4)cc3)cc2)no1,> 100 µM
21,Cc1ccc(S(=O)(=O)N/N=C2/CCC3(O)CC2(C)CCC2[C@H]3CC2(C)C)cc1 (some centres undefined),> 100 µM
22,CCCCCCCCCCCCOCC1(COCCCCCCCCCCCC)COC(c2ccc(N)cc2)OC1,> 100 µM
23,CC(C)OP(=O)(OC(C)C)C(C)(C)O,> 100 µM
24,Cc1cn(C2CC(N=[N+]=[N-])C(COP(=O)(O)OCC3OC(n4cc(F)c(=O)[nH]c4=O)CC3O)O2)c(=O)[nH]c1=O (centres undefined),> 100 µM
25,NC(=O)[N+](=CC(=S)Nc1ccccc1Cl)C(N)=O,> 100 µM

# Tested on: SN12C renal
# Test: DTP human tumour cell line panel, 48 h
row,SMILES,TGI
1,CCCCCCCCCCCCCCCCNC(=O)/C(=C\c1ccc(Cl)c(Cl)c1)NC(=O)c1ccccc1,81.5 µM
2,O=C(Nc1ccccc1)OCCN=C1c2ccccc2CCc2ccccc21,40.2 µM
3,COc1cc2cc(C(=O)N3CC(CCl)c4ccc([N+](C)(C)Cc5ccccc5[N+](=O)[O-])cc43)[nH]c2c(OC)c1OC (centres undefined),26.4 µM
4,CC(C)[C@H]1NC(=O)[C@H]2N=C(S[C@H]2C)[C@@H]2CCCN2C(=O)[C@H](Cc2ccccc2)NC(=O)[C@@H]2CSC(=N2)[C@@H](Cc2ccccc2)NC(=O)[C@@H]2CSC1=N2,> 50 µM
5,COC(=O)/C=C/[C@@H]1[C@H](C)N1S(=O)(=O)c1ccc(C)cc1 (some centres undefined),> 100 µM
6,COc1cc([C@@H]2c3cc4c(cc3[C@@H](Nc3ccc(Cl)cc3C(=O)c3ccccc3)[C@H]3COC(=O)[C@H]23)OCO4)cc(OC)c1OC,> 100 µM
7,O=C1Oc2ccccc2C(=O)/C1=C/N1C(=O)CNC1=S,> 100 µM
8,Cc1nn(C(=O)c2ccncc2)c2c1C(c1ccccc1[N+](=O)[O-])SC(N)=N2 (centres undefined),> 10 µM
9,Cn1nnc2c3c(N(CCO)CCO)ccnc3ccc21,> 100 µM
10,Cc1ccc(S(=O)(=O)N2CCSCCSCCSCCN(S(=O)(=O)c3ccc(C)cc3)CC2)cc1,> 100 µM
11,CCCc1nc2c(n1CC)C(=O)c1ccccc1C2=O,> 100 µM
12,C1CCCN(NC2=NCCO2)CC1,> 100 µM
13,O=C1NCN(c2ccccc2)C12CCN(CC1COc3ccccc3O1)CC2 (centres undefined),> 100 µM
14,CCOc1ccc(NC(=O)C(=O)Nn2c(N)nnc2N)cc1,> 100 µM
15,O=C1OC([C@H](O)c2cccnc2)c2ccccc21 (some centres undefined),> 10 µM
16,CC(C)(C)O/N=C/c1cc(NC(=S)c2ccsc2)ccc1Cl,32.2 µM
17,C=CCN1CCC(c2cc(C(=O)OCC)[nH]c2-c2cc(C)no2)C1=O (centres undefined),> 100 µM
18,CC(=O)N1C(Nc2nccs2)CCN1c1ccccc1 (centres undefined),> 10 µM
19,Cc1cc(NS(=O)(=O)c2ccc(N=[N+]([O-])c3ccc(S(=O)(=O)Nc4cc(C)on4)cc3)cc2)no1,> 100 µM
20,Cc1ccc(S(=O)(=O)N/N=C2/CCC3(O)CC2(C)CCC2[C@H]3CC2(C)C)cc1 (some centres undefined),> 100 µM
21,CCCCCCCCCCCCOCC1(COCCCCCCCCCCCC)COC(c2ccc(N)cc2)OC1,> 100 µM
22,CC(C)OP(=O)(OC(C)C)C(C)(C)O,> 100 µM
23,Cc1cn(C2CC(N=[N+]=[N-])C(COP(=O)(O)OCC3OC(n4cc(F)c(=O)[nH]c4=O)CC3O)O2)c(=O)[nH]c1=O (centres undefined),> 100 µM
24,NC(=O)[N+](=CC(=S)Nc1ccccc1Cl)C(N)=O,> 100 µM

# Tested on: DU-145 prostate
# Test: DTP human tumour cell line panel, 48 h
row,SMILES,TGI
1,CCCCCCCCCCCCCCCCNC(=O)/C(=C\c1ccc(Cl)c(Cl)c1)NC(=O)c1ccccc1,70.7 µM
2,O=C(Nc1ccccc1)OCCN=C1c2ccccc2CCc2ccccc21,91.3 µM
3,COc1cc2cc(C(=O)N3CC(CCl)c4ccc([N+](C)(C)Cc5ccccc5[N+](=O)[O-])cc43)[nH]c2c(OC)c1OC (centres undefined),> 100 µM
4,CC(C)[C@H]1NC(=O)[C@H]2N=C(S[C@H]2C)[C@@H]2CCCN2C(=O)[C@H](Cc2ccccc2)NC(=O)[C@@H]2CSC(=N2)[C@@H](Cc2ccccc2)NC(=O)[C@@H]2CSC1=N2,> 50 µM
5,COC(=O)/C=C/[C@@H]1[C@H](C)N1S(=O)(=O)c1ccc(C)cc1 (some centres undefined),> 100 µM
6,COc1cc([C@@H]2c3cc4c(cc3[C@@H](Nc3ccc(Cl)cc3C(=O)c3ccccc3)[C@H]3COC(=O)[C@H]23)OCO4)cc(OC)c1OC,> 100 µM
7,O=C1Oc2ccccc2C(=O)/C1=C/N1C(=O)CNC1=S,> 100 µM
8,Cc1nn(C(=O)c2ccncc2)c2c1C(c1ccccc1[N+](=O)[O-])SC(N)=N2 (centres undefined),> 10 µM
9,Cn1nnc2c3c(N(CCO)CCO)ccnc3ccc21,> 100 µM
10,Cc1ccc(S(=O)(=O)N2CCSCCSCCSCCN(S(=O)(=O)c3ccc(C)cc3)CC2)cc1,> 100 µM
11,CCCc1nc2c(n1CC)C(=O)c1ccccc1C2=O,> 100 µM
12,O=C1NCN(c2ccccc2)C12CCN(CC1COc3ccccc3O1)CC2 (centres undefined),> 100 µM
13,O=C1OC([C@H](O)c2cccnc2)c2ccccc21 (some centres undefined),> 10 µM
14,CC(C)(C)O/N=C/c1cc(NC(=S)c2ccsc2)ccc1Cl,17.1 µM
15,CC(=O)/C(=C\I)c1ccccc1,15.3 µM
16,C=CCN1CCC(c2cc(C(=O)OCC)[nH]c2-c2cc(C)no2)C1=O (centres undefined),> 100 µM
17,CC(=O)N1C(Nc2nccs2)CCN1c1ccccc1 (centres undefined),> 10 µM
18,Cc1cc(NS(=O)(=O)c2ccc(N=[N+]([O-])c3ccc(S(=O)(=O)Nc4cc(C)on4)cc3)cc2)no1,> 100 µM
19,Cc1ccc(S(=O)(=O)N/N=C2/CCC3(O)CC2(C)CCC2[C@H]3CC2(C)C)cc1 (some centres undefined),> 100 µM
20,CCCCCCCCCCCCOCC1(COCCCCCCCCCCCC)COC(c2ccc(N)cc2)OC1,> 100 µM
21,CC(C)OP(=O)(OC(C)C)C(C)(C)O,> 100 µM
22,Cc1cn(C2CC(N=[N+]=[N-])C(COP(=O)(O)OCC3OC(n4cc(F)c(=O)[nH]c4=O)CC3O)O2)c(=O)[nH]c1=O (centres undefined),> 100 µM
23,NC(=O)[N+](=CC(=S)Nc1ccccc1Cl)C(N)=O,> 100 µM

# Tested on: MCF7 breast
# Test: DTP human tumour cell line panel, 48 h
row,SMILES,TGI
1,CCCCCCCCCCCCCCCCNC(=O)/C(=C\c1ccc(Cl)c(Cl)c1)NC(=O)c1ccccc1,59.1 µM
2,O=C(Nc1ccccc1)OCCN=C1c2ccccc2CCc2ccccc21,57.8 µM
3,COc1cc2cc(C(=O)N3CC(CCl)c4ccc([N+](C)(C)Cc5ccccc5[N+](=O)[O-])cc43)[nH]c2c(OC)c1OC (centres undefined),> 100 µM
4,CC(C)[C@H]1NC(=O)[C@H]2N=C(S[C@H]2C)[C@@H]2CCCN2C(=O)[C@H](Cc2ccccc2)NC(=O)[C@@H]2CSC(=N2)[C@@H](Cc2ccccc2)NC(=O)[C@@H]2CSC1=N2,> 50 µM
5,COC(=O)/C=C/[C@@H]1[C@H](C)N1S(=O)(=O)c1ccc(C)cc1 (some centres undefined),> 100 µM
6,COc1cc([C@@H]2c3cc4c(cc3[C@@H](Nc3ccc(Cl)cc3C(=O)c3ccccc3)[C@H]3COC(=O)[C@H]23)OCO4)cc(OC)c1OC,> 100 µM
7,O=C1Oc2ccccc2C(=O)/C1=C/N1C(=O)CNC1=S,> 100 µM
8,Cc1nn(C(=O)c2ccncc2)c2c1C(c1ccccc1[N+](=O)[O-])SC(N)=N2 (centres undefined),> 10 µM
9,Cn1nnc2c3c(N(CCO)CCO)ccnc3ccc21,> 100 µM
10,Cc1ccc(S(=O)(=O)N2CCSCCSCCSCCN(S(=O)(=O)c3ccc(C)cc3)CC2)cc1,> 100 µM
11,CCCc1nc2c(n1CC)C(=O)c1ccccc1C2=O,> 100 µM
12,C1CCCN(NC2=NCCO2)CC1,> 100 µM
13,O=C1NCN(c2ccccc2)C12CCN(CC1COc3ccccc3O1)CC2 (centres undefined),> 100 µM
14,CCOc1ccc(NC(=O)C(=O)Nn2c(N)nnc2N)cc1,> 100 µM
15,O=C1OC([C@H](O)c2cccnc2)c2ccccc21 (some centres undefined),> 10 µM
16,CC(C)(C)O/N=C/c1cc(NC(=S)c2ccsc2)ccc1Cl,24.8 µM
